Patent US9771342B2, “Monascuspurpurones, preparation process thereof, and uses of the monascuspurpurones” (Food Industry Research and Development Institute, priority 2010, dated 2017)

How the values were obtained:
PPARγ-LBD = target: T1, PPARγ-LBD (Homo sapiens, UniProt P37231); assay: LanthaScreen TR-FRET PPAR Competitive Binding Assay; conditions: tested at 10-160 μg/ml, 2 hours at room temperature
T1 construct: 10 μL 4× PPARγ-LBD/Tb-anti-GST Ab; purchased Invitrogen PV4894
T1 sequence (P37231 238-503 limits assumed): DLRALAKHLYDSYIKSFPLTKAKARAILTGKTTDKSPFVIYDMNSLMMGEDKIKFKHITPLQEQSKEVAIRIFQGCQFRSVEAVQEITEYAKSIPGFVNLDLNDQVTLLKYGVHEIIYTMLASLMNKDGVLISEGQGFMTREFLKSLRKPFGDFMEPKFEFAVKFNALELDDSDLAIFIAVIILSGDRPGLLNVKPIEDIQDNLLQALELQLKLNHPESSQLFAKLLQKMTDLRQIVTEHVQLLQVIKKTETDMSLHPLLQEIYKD
Description: 10, 20, 40, 80 and 160 μg/ml of Compound 1 were tested in the ligand binding assay conducted following the manuals described in LanthaScreen TR-FRET PPAR Competitive Binding Assay kits (Invitrogen New York, N.Y. Catalog no. PV4894). In a 96-well microtiter plate, the reagents were pipetted into each well in the following order: 20 μL 2× Test Compound, 10 μL 4× Fluormone™ Pan-PPAR Green and 10 μL 4× PPARγ-LBD/Tb-anti-GST Ab in a total assay volume of 40 μl/well. The reagents were gently mixed by placing the microtiter plate on an orbital plate shaker for 30 seconds. The samples were incubated at room temperature (20-25° C.) for 2 hours in the dark allowing the binding of the samples to reach equilibrium. The fluorescent emission signal of each well was measured at 495 nm and 520 nm with an Absorbance Microplate Reader (Spectra Max M5 from Molecular Devices LLC).

3T3-L1 preadipocytes = assay: Enhancement of 3T3-L1 preadipocyte differentiation in insulin differentiation model (AdipoRed staining / triglyceride); format: cell-based; conditions: for Oil Red assay (% of control): insulin model, 3T3-L1 differentiation
Description: Preadipocytes were prepared according to the method described by Wald et al., (2007, “The small molecule harmine is an antidiabetic cell-type-specific regulator of PPARγ expression.” Cell Metabolism, 5(5): 357-370). Preadipocytes were cultured in DMEM (Dulbecco's Modified Eagle's Medium-high glucose, Sigma D-7777) containing 10% of fetal bovine serum (FBS) and incubated at 37° C. in a 5% CO2 incubator.
Before the differentiation induction experiments, the cells were plated into either 96- or 24-well plates (the concentration of cells in each well was about 2×10^4/cm^2). The plates were incubated for about two days to allow the cells to proliferate to confluence, and then maintained for another two days. The medium was changed to different differentiation media according to different experiments. The day of switching to differentiation medium was designated as day zero.
The differentiation medium used in insulin differentiation model was DMEM with 10% FBS comprising 10 μg/ml of insulin. Differentiation media with various concentrations of Compound 1 were added to each well of the 24- or 96-well 3T3-L1 preadipocyte plates (the final concentration of Compound 1 in each well was 2 μg/ml, 5 μg/ml, 10 μg/ml, and 20 μg/ml, respectively). The control group was the culture with only the differentiation medium and no sample. The cultures were incubated at 37° C. in a 5% CO2 incubator for seven days (during the period, the differentiation medium and sample were replaced with fresh ones twice), and then the medium was replaced by DMEM with 10% FBS. The cultures were maintained until day 9 or day 10 . The cells of the experiment groups and control groups at day 9 or day 10 were stained with AdipoRed and the concentrations of triglyceride were analyzed.
The 96-well plates were rinsed with PBS, and 200 μl of PBS and 5 μl of AdipoRed reagent (Lonze Walkersville, Inc., Walkersville, Md., USA, Catalog No. PT-7009) were added to each well. After 10 to 15 minutes, the plates were read with a spectrofluorometer (Infinite M200) set at an excitation wavelength of 485 nm and an emission wavelength of 572 nm. The fluorescent data of the experiment group was divided by the fluorescent data of the control group to obtain a percentage of induction activity.
The 24-well plates were rinsed with PBS, and the cells were washed off with 0.1 ml of 1% Triton X 100 per well. The cells were then frozen, thawed and centrifuged (10,000 rpm/5 min) and the supernatant was collected. An aliquot of 0.05 ml of the supernatant was analyzed using Triglycerol assay Kit (Audit Diagnostics, Ltd.).
The protein amounts were analyzed using Bio-Rad Dc Protein assay reagent (Bio-Rad). […]

3T3-L1 cells = assay: Quantitative real-time PCR of adipocyte differentiation related gene expression; format: cell-based
Description: The upstream genes that regulate adipocyte differentiation have been previously reported (F. M. Gregoire, C. M. Smas and H. S. Sul, Understanding adipocyte differentiation. Physiological Reviews, 783 (1998), pp. 783-809.) Among them, aP2, LPL, PPARγ, adiponectin, GLUT4, GLUT1, and C/EBPα were assayed to monitor the regulation of 3T3-L1 preadipocyte differentiation. The housekeeping genes of β-actin and Glyceraldehyde 3-phosphate dehydrogenase (GADPH) were used as control. “do” represents the conditions of the 3T3-L1 preadipocytes before adding inducing agents. In the “NC” groups, the 3T3-L1 preadipocytes were not treated with any inducing agent. Both “do” and “NC” groups were the control groups. In the groups of “insulin,” “E,” and “troglitazone,” the 3T3-L1 preadipocytes were induced with insulin, Compound 1 and insulin, and troglitazone, respectively.
After culturing the 3T3-L1 cells for 9 days, insulin, Compound 1 and insulin, and troglitazone were added to the medium. The cells were further cultivated, and the samples were collected on day 4 (early adipocyte differentiation stage), day 7 (middle stage) and day 9 (late stage) for the following assays.
Total RNA was extracted from 3T3-L1 cells using TRIZOL reagent according to the manufacturer's instructions (GIBCO 15596-026; Molecular Research Center, Inc). 4 μg of total RNA from each sample were reverse-transcribed to cDNA according to the protocol of the reverse transcript system [RevertAid H Minus First Strand cDNA Synthesis Kit (Fementas K1632)] with the oligo (dT)18 primers. A TaqMan One-Step RT-PCR Master Mix reagent kit and inventory primer and probes (Applied Biosystems, Foster, Calif.) were applied for the quantitative real-time PCR followed by a TaqMan gene expression assay. The sequences aP2 (Mm00445878_ml), LPL (Mm00434770_ml), PPARγ (Mm01184322_ml), adiponectin (Mm00456425_ml), GLUT4 (Mm01245502_ml), GLUT1 (Mm01192270_ml), C/EBPα (Mm01265914_sl), C/EBPδ (Mm00786711_sl), β-actin (Mm01205647_gl) and GADPH (Mm99999915_gl) were amplified in the PCR. Levels of mRNAs for housekeeping genes (β-actin and GADPH) were also measured by the real-time PCR. After cDNA synthesis, the quantitative real-time PCR was performed with the ABI Prism 7300 instrument (Applied Biosystems, Foster City, Calif., USA) according to the manufacturer's protocol. The PCR conditions were 1 cycle of 50 ° C. for 2 min, then 95 ° C. for 10 min, followed by 40 cycles of 95 ° C. for 15 seconds and 60 ° C. for 1 min. The quantification was performed in duplicate and the experiments were repeated independently three times.

[1] = day 4 (early stage), Compound 1 and insulin vs insulin group
[2] = day 7 (middle stage), Compound 1 and insulin vs insulin group
[3] = day 9 (late stage), Compound 1 and insulin vs insulin group
[4] = early, middle and late adipocyte differentiation stages

How did the “PPARγ binding IC50” value (PPARγ-LBD) turn out when “rel-(1S,7aR,3aR)-1-Hexanoyl-5,13-dimethyl-6-(2-oxopentyl)-7a,7-dihydrobenzofuran-2,4-dione [Compound 1]” was run?
Its value is 68 ± 21 µg/mL.

What about the “Oil Red assay (% of control)” value (3T3-L1 preadipocytes; 2 μg/ml) of the same substance?
Its value is 127 ± 4 % of control.

What about the “Oil Red assay (% of control)” value (3T3-L1 preadipocytes; 5 μg/ml) of the same substance?
The value was 140 ± 5 % of control.

What about the “Oil Red assay (% of control)” value (3T3-L1 preadipocytes; 10 μg/ml) of the same substance?
The value was 148 ± 8 % of control.

And the “triglyceride droplets in differentiated adipocytes, inverted microscope” value (3T3-L1 preadipocytes; 2, 5 and 10 μg/ml vs control culture (insulin only), FIG. 4)?
The value was “more triglyceride droplets than the control culture”.

And the “expression of C/EBPα, increase compared to insulin group” value (3T3-L1 cells; [1])?
The value was “about 50%”.

What about the “expression of GluT1 relative to insulin group” value (3T3-L1 cells; [1]) of the same substance?
The value was 0.6 fold.

And the “expression of PPARγ, increase compared to insulin group” value (3T3-L1 cells; [1])?
Its value is “about 50%”.

And the “expression of adiponectin, increase compared to insulin group” value (3T3-L1 cells; [1])?
Its value is “about 50%”.

And the “expression of GluT1 relative to insulin group” value (3T3-L1 cells; [2])?
Its value is 0.3 fold.

What about the “expression of LPL relative to insulin group” value (3T3-L1 cells; [2]) of the same substance?
Its value is 0.3 fold.

What about the “expression of PPARγ relative to insulin group” value (3T3-L1 cells; [2]) of the same substance?
Its value is 1.8 fold.

And the “expression of aP2 relative to insulin group” value (3T3-L1 cells; [2])?
Its value is 0.3 fold.

And the “expression of GluT1 relative to insulin control” value (3T3-L1 cells; day 9 (late stage), Compound 1 and insulin vs insulin control)?
Its value is 0.6 fold.

And the “expression of C/EBPα relative to insulin group” value (3T3-L1 cells; [3])?
Its value is 1.59 folds.

What about the “expression of PPARγ relative to insulin group” value (3T3-L1 cells; [3]) of the same substance?
Its value is 1.35 folds.

And the “expression of adiponectin relative to insulin group” value (3T3-L1 cells; [3])?
The value was 1.49 folds.

And the “effect on the expression of aP2, LPL, adiponectin, GLUT4, and GLUT1” value (3T3-L1 cells; [4])?
The value was “little effect”.

What about the “effect on the expressions of PPARγ and C/EBPα” value (3T3-L1 cells; [4]) of the same substance?
The value was “can stimulate the expressions of PPARγ and C/EBPα”.
